The values below come from ChEMBL document CHEMBL1201862, “PubChem BioAssay data set” (2004).

Among the test systems are HCC 2998; SK-MEL-28; HOP-62; NCI-H522; NCI-H460; SNB-75; HCT-116; CAKI-1; NCI/ADR-RES; HL-60; RPMI-8226; T47D; SW-620; NCI-H226; SNB-19; SR; UO-31; SK-MEL-2; MOLT-4.
Holding throughout (experiment): growth of human tumour cells (NCI), 48 h

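These data come from cells grown in 96-well plates and exposed to compound for 48 hours at five concentrations. Here, GI50 denotes the concentration required for 50% inhibition of growth.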 The source made the active and inactive calls. Cut-off read from the data, not from the text of the source: active = GI50 up to about 1.1 µM and inactive = higher. *1 amine or outer side, *2 acyl side, *3 side chain or, on linkers, in order; H or OH if unused. Where a SMILES comes first, the peptide text is derived from it. [ ]: non-standard residue; d: D form. The star is where a group is joined. ξ: configuration not given here. X53 = CC(C)C[C@H](N[*:1])C1=N[C@H](C(=O)[*:2])CS1; Ile(3ξ) = CCC(C)[C@H](N)C(=O)O; Allyl(1,1-Me2) = C=CC(C)(C)*

Regarding `CC1(C)N=c2c(ncn2CCCO)=C(C(N)=O)N1`, the GI50 is > 100 µM (inactive) in the assay with HCC 2998; > 100 µM (inactive) with SK-MEL-28; > 100 µM (inactive) in the assay with HOP-62; > 100 µM (inactive) in the assay on NCI-H522; > 100 µM (inactive) in the assay on NCI-H460; 60.4 µM (inactive) in the assay with SNB-75. Moreover, the GI50 with HCT-116, in the assay with CAKI-1, with NCI/ADR-RES, with HL-60, with RPMI-8226 and in the assay on T47D was > 100 µM (inactive) in each case. The GI50 with SW-620, in the assay with NCI-H226, in the assay with SNB-19 and in the assay on SR was > 100 µM (inactive) in each case.

With `C/C(=N/NC(=S)N1CC2CCC(CC2)C1)c1cnccn1`, the GI50 with UO-31 is < 0.0168 µM (active); in the assay with HCC 2998, 0.218 µM (active); in the assay with SK-MEL-28 it was 1.64 µM (inactive); with HOP-62 it was < 0.01 µM (active); in the assay with NCI-H522 it was 0.117 µM (active); with NCI-H460, < 0.0109 µM (active). The GI50 in the assay on SNB-75 was 0.828 µM (active); in the assay with HCT-116 it was < 0.01 µM (active); in the assay with CAKI-1 it was < 0.01 µM (active); with NCI/ADR-RES it was < 0.01 µM (active); in the assay on HL-60, < 0.01 µM (active); with RPMI-8226 it was < 0.01 µM (active). The GI50 with SK-MEL-2 was 0.278 µM (active); in the assay on T47D, < 0.0461 µM (active); in the assay on SW-620 it was < 0.01 µM (active); in the assay with NCI-H226 it was < 0.01 µM (active); with MOLT-4, < 0.01 µM (active); with SNB-19 it was 0.406 µM (active). For the same compound, the GI50 in the assay with SR was < 0.01 µM (active).

Regarding `COc1ccc(C(=O)/C=C/c2ccc(OCCCCCCCCCCOc3ccc(/C=C/C(=O)c4ccc(OC)cc4)cc3)cc2)cc1`, the GI50 in the assay with UO-31 is > 100 µM (inactive); in the assay with HCC 2998, > 100 µM (inactive); in the assay with SK-MEL-28, > 100 µM (inactive); in the assay with HOP-62, > 100 µM (inactive); in the assay with NCI-H460, > 100 µM (inactive); in the assay on SNB-75, 69.7 µM (inactive). In addition, the GI50 in the assay on HCT-116, with CAKI-1, with NCI/ADR-RES, in the assay with HL-60, in the assay with RPMI-8226 and with SK-MEL-2 was > 100 µM (inactive) in each case. The GI50 in the assay on T47D, with SW-620, in the assay with NCI-H226, in the assay on MOLT-4, in the assay on SNB-19 and in the assay on SR was > 100 µM (inactive) each time.

On to `O=[N+]([O-])c1ccc2oc(=N/c3ccccc3)/c(=N\c3ccccc3)[nH]c2c1`, for which the GI50 was 77.1 µM (inactive) with UO-31; 83.6 µM (inactive) in the assay with HCC 2998; > 100 µM (inactive) in the assay on SK-MEL-28; 35 µM (inactive) in the assay on HOP-62; 6.97 µM (inactive) in the assay on NCI-H522; 29.6 µM (inactive) in the assay on NCI-H460. The GI50 in the assay with SNB-75 is 18 µM (inactive); with HCT-116 it was 48.2 µM (inactive); with CAKI-1, 61.1 µM (inactive); in the assay on NCI/ADR-RES, 51.1 µM (inactive); in the assay on HL-60 it was > 100 µM (inactive); in the assay on RPMI-8226, > 100 µM (inactive). The GI50 in the assay on SK-MEL-2 is 36.7 µM (inactive); with T47D, > 100 µM (inactive); with SW-620, > 100 µM (inactive); in the assay on NCI-H226, > 100 µM (inactive); with MOLT-4, > 100 µM (inactive); with SNB-19 it was 41 µM (inactive). Further, in the assay on SR, the GI50 was > 100 µM (inactive).

Regarding `COC(=O)c1c2c(cc3c1CC1(Cc4ccccc4C1=O)C3)CCC2` (centres undefined), the GI50 in the assay with UO-31 was 13.9 µM (inactive); with HCC 2998 it was 36.6 µM (inactive); in the assay with SK-MEL-28 it was 93.3 µM (inactive); with HOP-62 it was 42.8 µM (inactive); with NCI-H522, 49.8 µM (inactive); in the assay with NCI-H460, 29.9 µM (inactive). In addition, the GI50 was 19.4 µM (inactive) in the assay with SNB-75; 26.6 µM (inactive) in the assay with HCT-116; 10.7 µM (inactive) in the assay on CAKI-1; 19.8 µM (inactive) with NCI/ADR-RES; 16 µM (inactive) with HL-60; 18.6 µM (inactive) in the assay on RPMI-8226. Further, the GI50 in the assay on SK-MEL-2 is 43.7 µM (inactive); with T47D, 52.7 µM (inactive); in the assay with SW-620 it was 31.8 µM (inactive); in the assay on NCI-H226 it was 2.58 µM (inactive); with MOLT-4, 12.2 µM (inactive); with SNB-19, > 100 µM (inactive). The GI50 in the assay on SR is 15.6 µM (inactive).

On to `CC(C)=CCC[C@@H](C)c1c2nc3ccccc3[nH]c-2c(C)c(=O)c1O`, for which the GI50 with UO-31 is 0.714 µM (active); with HCC 2998 it was 5.45 µM (inactive); in the assay with SK-MEL-28, 4.38 µM (inactive); in the assay on HOP-62, 1.19 µM (inactive); in the assay on NCI-H460, 0.671 µM (active); with SNB-75, 1.71 µM (inactive). In addition, the GI50 with HCT-116 is 1.36 µM (inactive); in the assay on CAKI-1, 1.14 µM (inactive); in the assay with NCI/ADR-RES, 0.771 µM (active); in the assay with HL-60 it was 0.383 µM (active); in the assay on RPMI-8226, 8.73 µM (inactive); in the assay on SK-MEL-2, 1.59 µM (inactive). Moreover, the GI50 with T47D is 1.91 µM (inactive); with SW-620, 3.13 µM (inactive); with NCI-H226, 1.4 µM (inactive); in the assay on MOLT-4 it was 1.44 µM (inactive); with SNB-19 it was 2.5 µM (inactive); in the assay on SR, 3.41 µM (inactive).

In the case of `CN1CCN(CC(=O)N2CCCn3c2nc2ccccc2c3=O)CC1`, the GI50 in the assay on UO-31, in the assay on HCC 2998, in the assay on HOP-62, in the assay with NCI-H522, in the assay with NCI-H460 and in the assay with SNB-75 was > 100 µM (inactive) in each case. The GI50 in the assay on HCT-116, in the assay on CAKI-1, in the assay with NCI/ADR-RES, in the assay with HL-60, in the assay with RPMI-8226 and with SK-MEL-2 was > 100 µM (inactive) each time. For the same compound, the GI50 in the assay with T47D is > 100 µM (inactive); with SW-620, > 100 µM (inactive); with NCI-H226, 52.1 µM (inactive); with MOLT-4, > 100 µM (inactive); in the assay with SNB-19 it was > 100 µM (inactive); with SR it was > 100 µM (inactive).

As to `Cc1cccc(NC(=O)CC(=O)N2N=C(N3c4ccccc4Sc4ccccc43)CC2c2ccccc2)c1` (centres undefined), the GI50 with UO-31, in the assay on HCC 2998, with SK-MEL-28, in the assay with HOP-62, with NCI-H522 and with NCI-H460 was > 100 µM (inactive) throughout. For the same compound, the GI50 in the assay with SNB-75, in the assay on HCT-116, in the assay on NCI/ADR-RES, with HL-60, in the assay on RPMI-8226 and with SK-MEL-2 was > 100 µM (inactive) in each case. The GI50 in the assay on T47D, with SW-620, with NCI-H226, with MOLT-4, in the assay on SNB-19 and in the assay with SR was > 100 µM (inactive) in each case.

Turning to `Nc1ccn(C2OC(COP(=O)(O)O)C(O)C2O)c(=O)n1` (centres undefined), the GI50 in the assay on UO-31 was 6.98 µM (inactive); with HCC 2998 it was > 100 µM (inactive); in the assay on HOP-62, 0.951 µM (active); in the assay on NCI-H522, 20.2 µM (inactive); in the assay with NCI-H460 it was 0.32 µM (active); in the assay with SNB-75 it was 28.8 µM (inactive). Further, the GI50 in the assay on HCT-116 was 1.8 µM (inactive); with CAKI-1, 14.4 µM (inactive); in the assay with NCI/ADR-RES it was 6.38 µM (inactive); in the assay on HL-60, 0.205 µM (active); with RPMI-8226 it was > 100 µM (inactive); with SK-MEL-2, > 100 µM (inactive). Besides, the GI50 with T47D was 42 µM (inactive); in the assay with SW-620, > 56.9 µM (inactive); in the assay on NCI-H226, 3.18 µM (inactive); with MOLT-4, 0.0497 µM (active); in the assay on SNB-19, 23.8 µM (inactive); with SR it was 3.39 µM (inactive).

Take `CCc1nc(N)nc(N)c1-c1ccc(NCCc2ccccc2)c([N+](=O)[O-])c1`: the GI50 in the assay on UO-31 was 1.86 µM (inactive); in the assay with HCC 2998, 0.745 µM (active); with SK-MEL-28, 2.74 µM (inactive); in the assay with HOP-62, 1.64 µM (inactive); in the assay on NCI-H522, 0.56 µM (active); with NCI-H460, 0.0687 µM (active). Besides, the GI50 in the assay on SNB-75 was 3.56 µM (inactive); in the assay with HCT-116 it was 0.0649 µM (active); with CAKI-1 it was 0.39 µM (active); with NCI/ADR-RES it was 0.716 µM (active); in the assay with HL-60 it was 0.186 µM (active); in the assay on RPMI-8226 it was 1.11 µM (active). The GI50 with SK-MEL-2 is 8.71 µM (inactive); with T47D, 4.51 µM (inactive); in the assay on SW-620 it was 0.163 µM (active); with NCI-H226 it was 6.05 µM (inactive); with MOLT-4 it was 0.491 µM (active); in the assay with SNB-19 it was 2.21 µM (inactive). The GI50 in the assay with SR is 0.215 µM (active).

Turning to `C=CC(C)(C)OC[C@@H]1NC(=O)CNC(=O)[C@@H]2CCCN2C(=O)[C@H](C(C)CC)NC(=O)[C@@H]2CSC(=N2)[C@H](CC(C)C)NC1=O` (some centres undefined) (cyclo(GS(Allyl(1,1-Me2))[X53][Ile(3ξ)]P)), the GI50 was 41.6 µM (inactive) with UO-31; 83 µM (inactive) in the assay with HCC 2998; > 100 µM (inactive) in the assay on HOP-62; 32.9 µM (inactive) with NCI-H522; 37.6 µM (inactive) with NCI-H460; 34.5 µM (inactive) in the assay with SNB-75. Moreover, the GI50 with HCT-116 is 56.5 µM (inactive); in the assay with CAKI-1 it was 75 µM (inactive); in the assay on NCI/ADR-RES, > 100 µM (inactive); in the assay with HL-60, 29.2 µM (inactive); in the assay with RPMI-8226, 18.6 µM (inactive); in the assay on SK-MEL-2, > 100 µM (inactive). The GI50 in the assay on T47D was 33.6 µM (inactive); with NCI-H226 it was > 100 µM (inactive); with MOLT-4 it was 27.5 µM (inactive); with SNB-19 it was > 100 µM (inactive); in the assay on SR it was 64.4 µM (inactive).
